According to US9757477B2, “Imaging brown adipose tissue with curcumin derivatives” (The General Hospital Corporation, priority 2013, dated 2017):
Several values for one entry are separate records, joined by “and”; a condition that tells them apart may be missing. Equal entries are not always repeated.

Columns and labels:
interscapular BAT = assay: Top-down whole-organism NIR fluorescence screening of dyes (ROI1/ROI2 contrast); format: in vivo, nude mice; conditions: for visible contrast around the interscapular BAT area: in vivo NIR images; for Ratio AVERAGE (mean ratio ROI1/ROI2): i.v., mean of three filter pairs, hit threshold >1.10
Description: 38 fluorescent dyes from commercial resources and from the inventors' laboratory were screened. Dyes with excitation range of 550-745 nm, emission range of 600-840 nm, and with molecular weight of less than 700 Da (except Cy5.5) (representative dyes are listed in FIG. 1d and the full list is shown in Table 2). Their hydrophobicities were not determined. The library was screened by intravenous tail injection of compounds into nude mice (10μg/mouse). Each dye was imaged with three optimized excitation/emission filter-pairs, and images at one hour after i.v. injection were acquired.
Top-down whole organism screening was performed as follows. Nude mice (nu/nu COX7) were purchased from Massachusetts General Hospital and Balb/c mice were from Jackson Laboratory. All animal experimental procedures were approved by the Institutional Animal Care and Use Committee (IACUC) at Massachusetts General Hospital. Dye stock solutions were prepared in DMSO. The final injection solution (0.1 mg/ml) was freshly prepared in a mixed solution of 20% DMSO, 20% Cremophor EL and 60% saline. Nude mice (n=5) were injected with a 100 μL dye solution via tail vein. For each imaging session, mice were anesthetized with a mixture of oxygen and isoflurane for 5 minutes, and then positioned into the imaging chamber of IVIS® Spectrum in vivo pre-clinical imaging system. Images were acquired at one-hour post-injection using sequence imaging with three excitation/emission filter pairs for each dye.
Hits selection was performed as follows. Hits from cell- or protein-based screening are usually selected by setting certain threshold. In the case of the top-down imaging screening, two methods were used (threshold and visible contrast) to select hits. First, three images obtained with three excitation/emission pairs were selected for each dye. These ex/em pairs were selected from the closest excitation and emission wavelengths of the tested dyes. For instance, 605/660 nm, 605/680 nm, 640/680 nm were selected for image acquisition of Nile blue (625/660 nm). The quantification of contrast for each image was calculated as a ratio of two ROIs (region of interest). ROI1 reflected the average signal from interscapular BAT and ROI2 was the average signal of the area that included BAT and white adipose tissue (WAT) around the interscapular site (FIG. 1b, left). The averaged fluorescent signal of ROI was used instead of the total signal, because the total signal depends on the area of ROI, whereas the averaged signal reflects the density of signal. The ratio of ROI1/ROI2 could reflect the signal/noise ratio of the tested probe, and could also reflect the selectivity of the probe for BAT over WAT. For each dye, three ROI1/ROI2 ratios obtained with the three filter pairs were calculated. The mean of the ratios was used as the threshold. If the mean ratio was >1.10, the dye was selected as a potential positive hit (FIG. 1c). Since the contrast of a dye in the top-down screening is in the visible range, the visible contrast around the interscapular BAT area was also tested for the hits with the mean ratio of >1.10. If both mean ratio and the visible contrast were positive, then the hit was subjected to re-testing procedure to validate its reliability as described below.
Although CRANAD-2 and CRANAD-3 were able to provide certain contrast for BAT in vivo, their excitation and emission wavelengths were still shorter than required for an ideal NIR imaging probe (both excitation and emission >640 nm). […] To seek better probes, a sub-library was synthesized based on the structures of the lead probes CRANAD-2 and -3. CRANAD-6, -19, -22, -24, -26, -32 and -43 were synthesized and tested (images and chemical structures, excitation and emission spectra are shown in FIG. 9 a-e). […] However, the ROI1/ROI2 ratio of CRANAD-22 was not improved (FIG. 9c).

[1] = Excitation and emission wavelengths of BAT imaging agents; format: physicochemical
Description: In some embodiments, the methods include irradiating the mammal with light of the appropriate wavelength to excite the BAT imaging agent, and detecting emissions therefrom.
Fluorescent dyes were purchased from Exciton Inc. (Dayton, Ohio) and Invitrogen. The reagents used for the synthesis were purchased from Aldrich and used without further purification. Column chromatography was performed on silica gel (SiliCycle Inc., 60 Å, […]) slurry packed into glass columns. 1H, 13C NMR spectra were recorded at 500 MHz and 125 MHz respectively, and reported in ppm downfield from tetramethylsilane. Fluorescence studies were carried out using a F-4500 Fluorescence Spectrophotometer (Hitachi). Mass spectra were obtained at Harvard University, Department of Chemistry Instrumentation Facility. Microscopic images were acquired with Nikon Eclipse 50i microscope. In vivo NIR imaging was performed using the IVIS® Spectrum animal imaging system (Caliper LifeSciences, Perkin Elmer, Hopkinton, Mass.), and data analysis was conducted using LivingImage® 4.2.1 software.

[2] = system: differentiated 3T3-L1 cells; assay: Probe uptake in differentiated 3T3-L1 cells (IVIS and two-photon imaging, competition); format: cell-based; conditions: for uptake with triglyceride competition: triglyceride added with probe, two-photon microscopy and IVIS
Description: To investigate the facilitated diffusion of CRANAD-2, the time courses of CRANAD-2 uptake in 3T3-L1 cells were compared before and after differentiation. Two-photon imaging for 3T3-L1 cells was performed as follows. Fibroblast 3T3-L1 cells were differentiated following the protocol provided by Zenbio, Inc. (protocol No. ZBM0009.02). Ten microliters of CRANAD-2 (250 μM in DMSO) was added to the differentiated cells (1.0 ml). Cells were imaged after 10 min of incubation. A 940 nm laser was first used to capture an image for CRANAD-2 in 570-620 nm channel (Prairie Two-photon microscope, Middleton, Wis.). Next, the laser was tuned to 750 nm to capture autofluorescence of the cells to outline cell morphology.
For triglyceride competition, stock solutions of CRANAD-2 (250 μM) and triglyceride (5 mM) in DMSO were prepared. Before imaging, 10 μl of the stock solution was added to the cells.
IVIS imaging of 3T3-L1 cells with CRANAD-2 was performed as follows. To a 6-well plate seeded with preadipocytes or differentiated adipocytes, a 10 μL solution of CRANAD-2 (250 μM in DMSO) was added. The plate was subjected to imaging using IVIS imaging system with Ex=605 nm, Em=660 nm before and after addition of CRANAD-2. For triglyceride competition, the same protocol for two-photon imaging was used. The images were acquired at 20 min after addition of CRANAD-2. Studies were performed in triplicate.
The uptake of CRANAD-29 in 3T3-L1 cells before and after differentiation was compared. IVIS imaging of 3T3-L1 cells with CRANAD-29 was performed as follows. To a 6-well plate seeded with preadipocytes or differentiated adipocytes, a 10 μL solution of CRANAD-29 (250 μM in DMSO) was added. The plate was subjected to imaging using IVIS imaging system with Ex=640 nm, Em=700 nm before and after addition of CRANAD-29. For triglyceride competition and Hexarelin inhibition, the similar protocol for CRANAD-2 imaging was used. The final concentration of hexarelin was 12.5 μM, and the images were acquired at 3 hours after addition of CRANAD-29 and triglyceride/Hexarelin. Studies were performed in triplicate.

[3] = nude mice, one hour post-injection

Structure (SMILES): CN(C)c1ccc(/C=C/C2=CC(=C/C=C3C=CC(=[N+](C)C)C=C3)/O[B-](F)(F)O2)cc1 [CRANAD-2]
- visible contrast around the interscapular BAT area (interscapular BAT): best contrast and clear triangular contour
- Ratio No 1 (ROI1/ROI2 average fluorescence intensity) (interscapular BAT; nude mice, 10 μg/mouse i.v., one hour post-injection, first excitation/emission filter pair): 1.31E+00
- Ratio No 2 (ROI1/ROI2 average fluorescence intensity) (interscapular BAT; nude mice, 10 μg/mouse i.v., one hour post-injection, second excitation/emission filter pair): 1.26E+00
- Ratio No 3 (ROI1/ROI2 average fluorescence intensity) (interscapular BAT; nude mice, 10 μg/mouse i.v., one hour post-injection, third excitation/emission filter pair): 1.26E+00
- Ratio AVERAGE (mean ratio ROI1/ROI2) (interscapular BAT; [3]): 1.28 and 1.28E+00
- Emission λ [1]: 680 nm
- Excitation λ [1]: 605 nm
- time to uptake plateau ([2]; differentiated 3T3-L1 cells): 15 min
- uptake within 1 minute, of the maximal ([2]; differentiated 3T3-L1 cells): 62%
- uptake with triglyceride competition [2]: significant decrease in uptake

Structure (SMILES): F[B-]1(F)OC(/C=C/c2cc3c4c(c2)CCCN4CCC3)=CC(/C=C/c2cc3c4c(c2)CCCN4CCC3)=[O+]1 [CRANAD-29]
- visible contrast around the interscapular BAT area (interscapular BAT): excellent contrast and a very clear contour of BAT
- Ratio AVERAGE (mean ratio ROI1/ROI2) (interscapular BAT; [3]): 1.36
- Emission λ [1]: 700 nm
- Excitation λ [1]: 640 nm
- time to uptake plateau ([2]; differentiated 3T3-L1 cells): around 90 minute
- reduction of uptake in glutaraldehyde-fixed cells ([2]; differentiated 3T3-L1 cells fixed with glutaraldehyde): 70%
- uptake with Hexarelin (CD36 specific ligand) ([2]; hexarelin 12.5 μM, images at 3 hours): significantly inhibited by Hexarelin
- uptake with triglyceride competition [2]: significantly reduced by triglyceride
